The text below walks through data of PubChem BioAssay (NCI).

“And” between values parts separate entries of the source, which are not always exact repeats. Equal entries are not always repeated.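 Cells were grown in 96-well plates and exposed to each compound for 48 hours at five concentrations; endpoints were interpolated linearly between bracketing concentrations, or set to the highest concentration if not reached. GI50 marks 50% less growth. TGI denotes the concentration required for complete inhibition of growth.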

Common to all, as to assay: DTP human tumour cell line panel, 48 h
In assay [1] the test system is HOP-62 NSCLC.
For assay [2], the system named is K-562 leukemia.
In assay [3] the test system is CCRF-CEM leukemia.
The test system of assay [4] is TK-10 renal.
In assay [5] the test system is NCI-H460 lung.
Assay [6] concerns UACC-62 melanoma.
In assay [7] the test system is SF-539 CNS.
In assay [8] the test system is NCI-H522 lung.
Assay [9] deals with BT-549 breast.
The subject of assay [10] is NCI/ADR-RES ovarian.

With `Cc1ccc(Oc2ccc(C)cc2N)cc1`, the total growth inhibition concentration (TGI) in [1], in [2], in assay [3], in assay [4], in assay [5] and in assay [6] was greater than 100 µM throughout. The molecule further registered a TGI in assay [7] greater than 100 µM.

For the molecule `Cc1cc2c(C)[nH]nc2c(C(=O)O)c1C`, the TGI in assay [1], in [2], in assay [3], in assay [5], in [6] and in assay [7] was greater than 100 µM in each case.

As to `O=C1C=CC(=O)c2nc3c(cc21)CCC3`, the TGI is greater than 100 µM in assay [1]; 39.3 µM in assay [2]; 25.6 µM in assay [3]; 32.7 µM in [4]; greater than 100 µM in [5]; 33 µM in assay [6]. The concentration for total growth inhibition (TGI) in assay [8] was 25.4 µM.

Take `CC(C)=CCC(O)C1=CC(=O)c2c(O)ccc(O)c2C1=O` (stereo unspecified): the TGI worked out at 3.17 µM in [9]; 4.95 µM in assay [1]; 0.602 µM in [2]; 0.399 µM in assay [3]; 3.04 µM in assay [4]; 7.78 µM in assay [5]. For the same molecule, the TGI in assay [6] came out at 3.41 µM; in [8], 0.694 µM; in assay [7], 3.01 µM.

Take `C=CC[C@H](C[C@H](C[C@H](C[C@H](C[C@H](C[C@H](C[C@H](C[C@H](C[C@H](C[C@H](CCCCC)OC)OC)OC)OC)OC)OC)OC)OC)OC)OC`: the TGI in [1], in [2], in assay [3], in [4], in assay [5] and in [6] was greater than 100 µM throughout. Besides, the TGI in assay [8] and in assay [7] was greater than 100 µM each time.

Turning to `COC(=O)C(CCCN1C(=O)c2ccccc2C1=O)C(=O)OC`, the TGI in assay [1], in [2], in assay [3], in assay [4], in [5] and in assay [6] was greater than 100 µM throughout. Moreover, the TGI in [8] and in assay [7] was greater than 100 µM throughout.

For `Cc1ccc(/C=C/C(=O)c2cccc3ccccc23)cc1`, the TGI in assay [1] was found to be 37.7 µM; in [2], 44.3 µM; in assay [3] it was 67 µM; in assay [4], 28.5 µM; in assay [5], 30.7 µM; in [6], 33.7 µM. This molecule yielded a TGI in [8] of 34.2 µM.

On to `N[C@@H]1CCCC[C@@H]1N.O=P([O-])([O-])CN(CCN(CP(=O)([O-])[O-])CP(=O)([O-])[O-])CP(=O)([O-])[O-].[Pt+2]`, for which the GI50 in assay [1], in assay [2], in assay [4], in assay [5], in [6] and in assay [8] was greater than 25 µM throughout. For the same molecule, the GI50 in assay [7] is greater than 25 µM. Moreover, the TGI in [1], in assay [2], in assay [4], in assay [5], in assay [6] and in [8] was greater than 25 µM in each case. The TGI in assay [7] is greater than 25 µM.

On to `O=C1CN(c2cccc(Cl)c2)C(=O)CN1CCN1CC(=O)N(c2cccc(Cl)c2)CC1=O`, for which the TGI in [9], in assay [1], in [3], in assay [4], in assay [5] and in assay [6] was greater than 100 µM in each case. For the same molecule, the TGI in assay [8] and in assay [7] was greater than 100 µM in each case.

Regarding `CC(=O)NNc1nc(C)c(C(=O)/C=C/c2ccc(NC(C)=O)cc2)s1`, the TGI in [1], in [2], in assay [3], in [4], in [5] and in assay [6] was greater than 100 µM in each case. Moreover, the TGI in assay [8] and in assay [7] was greater than 100 µM throughout.

On to `CCOC(=O)C1=C(C(=O)OCC)C2c3ccccc3C=CN2C(C(=O)OCC)=C(SC)S1` (stereo unspecified), for which the concentration for total growth inhibition (TGI) in assay [1], in [2], in assay [3], in assay [4], in [5] and in [6] was greater than 100 µM in each case. Further, the TGI in assay [8] and in assay [7] was greater than 100 µM in each case.

As to `S=c1sc2c(n1-c1ccccc1)NC=NC2S` (stereo unspecified), the TGI in assay [1], in assay [2], in assay [3], in [4], in assay [5] and in assay [6] was greater than 100 µM throughout. Also, the concentration for total growth inhibition (TGI) in [8] and in assay [7] was greater than 100 µM throughout.

As to `COc1cc(C2CC(C)(O)Oc3cc4c(cc32)OCO4)cc(OC)c1OC` (stereo unspecified), the total growth inhibition concentration (TGI) in assay [9] is greater than 100 µM; in assay [1], greater than 100 µM; in assay [2], greater than 100 µM; in [3], greater than 100 µM; in [4], greater than 100 µM; in assay [5], 17.6 µM. Further, the TGI in assay [6] is greater than 100 µM; in assay [8], 0.661 µM; in assay [7], 0.518 µM.

Consider `CCCCCCCCCCCCCCCC[N+](C)(C)Cc1ccccc1`, for which, in assay [6], the GI50 was 1.36 µM and the TGI was 2.98 µM. Also, in assay [10], the GI50 is 14.4 µM and 12 µM; the TGI is 45.1 µM and 42 µM.

In the case of `CC(=O)OCCOCNC(=S)N/N=C(\C)c1cnccn1`, the concentration for total growth inhibition (TGI) is greater than 100 µM in assay [1]; greater than 100 µM in assay [2]; greater than 100 µM in assay [3]; greater than 100 µM in assay [4]; greater than 100 µM in assay [5]; 36.5 µM in assay [6]. For the same molecule, the TGI in [8] was 97 µM; in assay [7] it was greater than 100 µM.

`CCCCCC[C@@H]1CCC2C(CO)[C@@H](O)CC[C@@H]2C1` (stereo partly specified): the TGI was 33 µM in assay [1]; greater than 100 µM in assay [2]; 79.9 µM in assay [3]; 30.4 µM in [5]; 38.6 µM in assay [6]; 31.5 µM in assay [8]. In addition, the TGI in assay [7] was found to be 33.1 µM.

What is called TGI is the concentration at which net growth stops. As a reminder, the GI50 is the concentration giving 50% growth inhibition.
